# Data published in patent US5710150A, “Benzazepine derivative, pharmaceutical composition thereof, and intermediate thereof” (Yamanouchi Pharmaceutical Co., Ltd., priority 1993, dated 1998).
# Counter-ions that a name gives are not always drawn. Like-named read-outs stand apart in the source and are kept apart here.
# Columns and labels:
# [1] = biological target: T1, arginine vasopressin V1 receptor (Rattus norvegicus, UniProt P30560); experiment: V1 receptor binding assay ([3H]-Arg-vasopressin, rat liver membrane); settings: for V1 selectivity (in words): V1 versus V2 receptor binding; for V1 receptor antagonism compared with OPC-21268 (in words): versus OPC-21268; for antagonism on V1 receptor (in words): compared with OPC-31260 and OPC-21268
# T1 construct: A rat liver membrane sample was prepared; from tissue; host or cells: rat liver membranes
# T1 sequence (P30560 whole entry): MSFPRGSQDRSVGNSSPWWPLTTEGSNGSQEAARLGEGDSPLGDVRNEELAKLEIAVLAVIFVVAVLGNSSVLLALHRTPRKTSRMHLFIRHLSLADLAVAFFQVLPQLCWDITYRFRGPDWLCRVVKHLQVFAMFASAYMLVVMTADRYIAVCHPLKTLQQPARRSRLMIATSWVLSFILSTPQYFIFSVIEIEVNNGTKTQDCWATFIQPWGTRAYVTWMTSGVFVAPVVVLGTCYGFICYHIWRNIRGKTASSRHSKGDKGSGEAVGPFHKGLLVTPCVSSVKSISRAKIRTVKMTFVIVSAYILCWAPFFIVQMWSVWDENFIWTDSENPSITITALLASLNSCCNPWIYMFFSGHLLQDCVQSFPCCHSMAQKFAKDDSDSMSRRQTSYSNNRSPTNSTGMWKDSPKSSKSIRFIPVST
# Description: (1) V1 receptor binding assay
# A rat liver membrane sample was prepared in accordance with the method of Nakamura et al. (J. Biol. Chem., 258, 9283 (1983)), and [^3 H]-Arg-vasopressin (2 nM, specific activity=75.8 Ci/mmol), 70 μg of the membrane sample and each drug to be tested (10^-8 to 10^-4 M) were incubated at 30° C. for 30 minutes in 250 μl of 100 mM Tris-HCl buffer (pH=8.0) containing 5 mM of magnesium chloride, 1 mM of ethylenediaminetetraacetic acid (EDTA) and 0.1% of bovine serum albumin (BSA). Thereafter, the incubation solution was sucked off using a cell harvester and free ligand and excess buffer were removed by passing the reaction mixture through a glass filter (GF/B), thereby trapping receptor-bound labeled ligand on the glass filter. The glass filter was taken out, thoroughly dried and then mixed with a liquid scintillation cocktail, and the amount of the membrane-bound [^3 H]-vasopressin was measured using a liquid scintillation counter to calculate the inhibition ratio by the following formula. [formula] C1 : amount of [^3 H]-vasopressin bound to the membrane in the coexistence of known amount of each drug to be tested and [^3 H]-vasopressin
# C0 : amount of [^3 H]-vasopressin bound to the membrane when the drug to be tested was not added
# B1 : amount of [^3 H]-vasopressin bound to the membrane in the presence of excess vasopressin (10^-6 M)
# [formula] [L]: concentration of radioactive ligand KD: dissociation constant calculated from Scatchard plot
# Negative logarithm of the thus calculated Ki value was used as pKi value.
# [2] = biological target: arginine vasopressin V2 receptor (Oryctolagus cuniculus, UniProt G1TA00); experiment: V2 receptor binding assay ([3H]-Arg-vasopressin, rabbit renal medulla membrane); settings: for Binding activity on arginine vasopressin V2 receptor (pKi): rabbit renal medulla membrane, [3H]-Arg-vasopressin 2 nM; for antagonism on V2 receptor (in words): compared with OPC-31260 and OPC-21268
# Sequence of arginine vasopressin V2 receptor (G1TA00 78-446): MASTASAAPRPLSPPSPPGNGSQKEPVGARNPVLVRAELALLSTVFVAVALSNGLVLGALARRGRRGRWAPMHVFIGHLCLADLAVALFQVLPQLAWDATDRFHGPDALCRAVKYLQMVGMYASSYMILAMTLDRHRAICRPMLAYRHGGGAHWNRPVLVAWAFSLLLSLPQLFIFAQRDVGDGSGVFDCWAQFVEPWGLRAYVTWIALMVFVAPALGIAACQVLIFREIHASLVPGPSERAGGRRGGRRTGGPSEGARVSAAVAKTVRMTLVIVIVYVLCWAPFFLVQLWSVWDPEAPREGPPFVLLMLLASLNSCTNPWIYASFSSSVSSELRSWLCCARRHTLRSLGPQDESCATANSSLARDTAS
# V1 = V1 antagonism in conscious rats (oral administration), AVP-induced diastolic blood pressure increase; type: in vivo, male Wister rats; settings: 1 mg/kg oral, 30 minutes to 6 hours after administration, AVP 30 mU/kg i.v.
# [3] = rat liver membrane, [3H]-Arg-vasopressin 2 nM, 30° C., 30 minutes, pH 8.0, read-out: Binding activity on arginine vasopressin V1 receptor (pKi) (converted)
SMILES,Binding activity on arginine vasopressin V2 receptor (pKi) [2],"Ki [1, 3] [nM]",further results
"Cc1ccoc1C(=O)Nc1ccc(C(=O)N2CCC(F)(F)/C(=C\C(=O)N3CCC(N(C)C)CC3)c3ccccc32)cc1 [Example 113, (Z)-N-[4-[[4,4-difluoro-5-[[(4-dimethylaminopiperidino)carbonyl]methylene]-2,3,4,5-tetrahydro-1H-1-benzazepin-1-yl]carbonyl]phenyl]-3-methyl-2-furancarboxyamide hydrochloride]",7.50,–,Ki [1]: 0.263 nM; V1 selectivity (in words) [1]: excellent in V1 selectivity; V1 receptor antagonism compared with OPC-21268 (in words) [1]: markedly stronger V1 receptor antagonism than that of OPC-21268
O=C(/C=C1/c2ccccc2N(C(=O)c2ccc(NC(=O)c3ccccc3-c3ccccc3)cc2)CCC1(F)F)NC1CC1 [Example 126],8.22,0.288,–
"CCc1nccn1-c1ccccc1C(=O)Nc1ccc(C(=O)N2CCC(F)(F)/C(=C\C(=O)NC)c3ccccc32)cc1 [Example 104, (Z)-2-(2-ethyl-1H-imidazol-1-yl)-4'-[[4,4-difluoro-5-[(N-methylcarbamoyl)methylene]-2,3,4,5-tetrahydro-1H-1-benzazepin-1-yl]carbonyl]benzanilide]",6.68,0.977,V1 selectivity (in words) [1]: excellent in V1 selectivity; V1 receptor antagonism compared with OPC-21268 (in words) [1]: markedly stronger V1 receptor antagonism than that of OPC-21268
"CN(C)C1CCN(C(=O)/C=C2/c3ccccc3N(C(=O)c3ccc(NC(=O)c4cccc(Cl)c4)cc3)CCC2(F)F)CC1.Cl [Example 96, (Z)-3-chloro-4'-[[4,4-difluoro-5-[[(4-dimethylaminopiperidino)carbonyl]methylene]-2,3,4,5-tetrahydro-1H-1-benzazepin-1-yl]carbonyl]benzanilide hydrochloride]",8.13,2,–
"Cc1cccc(-c2ccccc2C(=O)Nc2ccc(C(=O)N3CCC(F)(F)/C(=C\C(=O)N4CCN(C)CC4)c4ccccc43)cc2)c1.Cl [Example 19, (Z)-4'-[[4,4-difluoro-5-(4-methyl-1-piperazinyl)carbonylmethylene-2,3,4,5-tetrahydro-1H-1-benzazepin-1-yl]carbonyl]-2-(3-methylphenyl)benzanilide hydrochloride]",8.84,2.63,–
"CN(C)C1CCN(C(=O)/C=C2/c3ccccc3N(C(=O)c3ccc(NC(=O)c4cccc5ccccc45)cc3)CCC2(F)F)CC1 [Example 109, (Z)-N-[4'-[[4,4-difluoro-5-[[(4-dimethylaminopiperidino)carbonyl]methylene]-2,3,4,5-tetrahydro-1H-1-benzazepin-1-yl]carbonyl]phenylnaphthalene-1-carboxyamide hydrochloride]",8.06,3.98,–
"O=C(/C=C1/c2ccccc2N(C(=O)c2ccc(NC(=O)c3ccccc3-c3ccccc3)cc2)CCC1(F)F)NCc1ccccn1 [Example 14, (Z)-4'-[[4,4-difluoro-5-[N-(2-pyridylmethyl)carbonylmethylene]-2,3,4,5-tetrahydro-1H-1-benzazepin-1-yl]carbonyl]-2-phenylbenzanilide hydrochloride]",9.39,1.23,–
"O=C(/C=C1/c2ccccc2N(C(=O)c2ccc(NC(=O)c3ccccc3-c3ccccc3)cc2)CCC1(F)F)NCCO [Example 134, (Z)-4'-[[4,4-difluoro-5-[N-(2-hydroxyethyl)carbamoylmethylene]-4,4-difluoro-2,3,4,5-tetrahydro-1H-1-benzazepin-1-yl]carbonyl]-2-phenylbenzanilide]",8.94,–,"Binding activity on arginine vasopressin V1 receptor (pKi) ([1]; rat liver membrane, [3H]-Arg-vasopressin 2 nM, 30° C., 30 minutes, pH 8.0): 9.50"
"CN(C)C1CCN(C(=O)/C=C2/c3ccccc3N(C(=O)c3ccc(NC(=O)c4ccccc4-c4ccccc4)cc3)CCC2(F)F)CC1.Cl [Example 13, (Z)-4'-[[4,4-difluoro-5-[[(4-dimethylaminopiperidino)carbonyl]methylene]-2,3,4,5-tetrahydro-1H-1-benzazepin-1-yl]carbonyl]-2-phenylbenzanilide hydrochloride]",9.58,0.0794,antagonism on V1 receptor (in words) [1]: excellent antagonisms on both V1 and V2 receptors; antagonism on V2 receptor (in words) [2]: excellent antagonisms on both V1 and V2 receptors; Pressure increment by AVP (before compound = 100%) (V1): ≤ 50%
"Cc1ccccc1CC(=O)Nc1ccc(C(=O)N2CCC(F)(F)/C(=C\C(=O)N3CCC(N(C)C)CC3)c3ccccc32)cc1 [Example 106, hydrochloride]",8.24,1.12,–
"Cl.O=C(Nc1ccc(C(=O)N2CCC(F)(F)/C(=C\CN3CCCC3)c3ccccc32)cc1)c1ccccc1-c1ccccc1 [Example 81, (Z)-4'-[[4,4-difluoro-5-[2-(1-pyrrolidinyl)ethylidene]-2,3,4,5-tetrahydro-1H-1-benzazepin-1-yl]carbonyl]-2-phenylbenzanilide hydrochloride]",8.64,0.724,–
"O=C(Nc1ccc(C(=O)N2CCC(F)(F)/C(=C\C(=O)N3CCCNCC3)c3ccccc32)cc1)c1ccccc1-c1ccccc1 [Example 28, (Z)-4'-[[[5-[(hexahydro-1,4-diazepin-1-yl)carbonyl]methylene]-4,4-difluoro-2,3,4,5-tetrahydro-1H-1-benzazepin-1-yl]carbonyl]-2-phenylbenzanilide hydrochloride]",9.37,0.0832,antagonism on V1 receptor (in words) [1]: excellent antagonisms on both V1 and V2 receptors; antagonism on V2 receptor (in words) [2]: excellent antagonisms on both V1 and V2 receptors
"O=C(/C=C1/c2ccccc2N(C(=O)c2ccc(NC(=O)c3ccccc3-c3ccccc3)cc2)CCC1(F)F)NCc1ccccc1 [Example 127, (Z)-4'-[[4,4-difluoro-5-[(N-benzylcarbamoyl)methylene]-2,3,4,5-tetrahydro-1H-1-benzazepin-1-yl]carbonyl]-2-phenylbenzanilide]",8.19,1.74,–
"CC(C)NC(=O)/C=C1/c2ccccc2N(C(=O)c2ccc(NC(=O)c3ccccc3-c3ccccc3)cc2)CCC1(F)F [Example 125, (Z)-4'-[[4,4-difluoro-5-(N-isopropylcarbamoylmethylene)-2,3,4,5-tetrahydro-1H-1-benzazepin-1-yl]carbonyl]-2-phenylbenzanilide]",8.08,0.282,–
"CCNC(=O)/C=C1/c2ccccc2N(C(=O)c2ccc(NC(=O)c3ccccc3-c3ccccc3)cc2)CCC1(F)F [Example 123, (Z)-4'-[[5-(N-ethylcarbamoylmethylene)-4,4-difluoro-2,3,4,5-tetrahydro-1H-1-benzazepin-1-yl]carbonyl]-2-phenylbenzanilide]",9.16,0.2,–
"CCc1nccn1-c1ccccc1C(=O)Nc1ccc(C(=O)N2CCC(F)(F)/C(=C\C(N)=O)c3ccccc32)cc1 [Example 103, (Z)-4'-[(5-carbamoylmethylene-4,4-difluoro-2,3,4,5-tetrahydro-1H-1-benzazepin-1-yl]carbonyl]-2-(2-ethyl-1H-imidazol-1-yl)benzanilide]",6.35,2,V1 selectivity (in words) [1]: excellent in V1 selectivity; V1 receptor antagonism compared with OPC-21268 (in words) [1]: markedly stronger V1 receptor antagonism than that of OPC-21268
"CN1CCN(C/C=C2/c3ccccc3N(C(=O)c3ccc(NC(=O)c4ccccc4-c4ccccc4)cc3)CCC2(F)F)CC1.Cl.Cl [Example 80, (Z)-4'-[[4,4-difluoro-5-[2-(4-methyl-1-piperazinyl)ethylidene]-2,3,4,5-tetrahydro-1H-1-benzazepin-1-yl]carbonyl]-2-phenylbenzanilide dihydrochloride]",8.50,0.363,–
"O=C(Nc1ccc(C(=O)N2CCC(F)(F)/C(=C\C(=O)N3CCC(N4CCCCC4)CC3)c3ccccc32)cc1)c1ccccc1-c1ccccc1 [Example 83, (Z)-4'-[[4,4-difluoro-5-[[(4-piperidinopiperidino)carbonyl]piperidyl)carbamoyl]methylene]-2,3,4,5-tetrahydro-1H-1-benzazepin-1-yl]carbonyl]-2-phenylbenzanilide hydrochloride]",8.47,0.234,–
